The results in this text go back to patent publication US12331026B2 (NiKang Therapeutics, Inc., priority 2022, dated 2025).

For this experiment, the target named is T1, CDK2 (Homo sapiens, UniProt P24941).
T1 construct: endogenous in cells; host or cells: OVCAR3 cells
Briefly: Phospho-RB measurement in OVCAR3 cells (HTRF phospho-RB S807/811). It is filed as cell-based. As to conditions: phosphorylation of RB protein at S807/811, HTRF, 24 h compound treatment, 0.3 to 10,000 nM, read-out: pRb (uM). The protocol:
The ability of compounds of Formula (I) to inhibit CDK2 was determined in OVCAR3 cells. Phosphorylation of RB protein at S807/811 were measured using HTRF phospho-RB cellular kits (Cat #64RBS807PEG) from Cisbio.
On Day 1, OVCAR3 cells were seeded into 96-well tissue-culture treated plates at 20,000 cells/well in 200 μL and incubated overnight at 37° C. in CO2 atmosphere. On Day 2, the cells were treated with test compounds at concentrations from 0.3 to 10,000 nM using HP D300 digital dispenser. Twenty-four hours after compound treatment, cell culture media was removed by flicking the plate and tapping the plate against clean paper towel. Immediately 30 μL 1× lysis buffer was supplemented from the kit and the plate was incubated at room temperature on shaker for 30 min. After homogenization by pipetting up and down, 8 μL cell lysate from 96-well cell culture plate was transferred to 384-well small volume white detection plate. 2 μL premixed detection solution was added and the plate was covered with sealer. To prepare the detection solution, d2 conjugated-phospho-RB antibody and Eu-cryptate conjugated phosphor-RB antibody were diluted into detection buffer following manufacturer's instruction.
Detection plates were incubated for 4 h at room temperature and read on ClarioStar (BMG Labtech) in TR-FRET mode ([…]). The TR-FRET ratio (665 nM1/620 nM) was plotted against the compound concentration and normalized to DMSO controls. Half maximal inhibition concentration (IC50) values are calculated with a four-parameter logistic fit using GraphPad Prism (version 8; La Jolla, CA).
Regarding `O=S1(=O)CC2(CC(Nc3nccc(-c4sc(C56CC(C5)C6)nc4-c4cccc(NS(=O)(=O)c5c(F)cccc5F)c4F)n3)C2)C1` [Example 3, N-(3-(2-(bicyclo[1.1.1]pentan-1-yl)-5-(2-((2,2-dioxido-2-thiaspiro[3.3]heptan-6-yl)amino)pyrimidin-4-yl)thiazol-4-yl)-2-fluorophenyl)-2,6-difluorobenzenesulfonamide], the IC50 worked out at 0.12 µM.

For `CC1C2(CC(Nc3nccc(-c4sc(C56CC(C5)C6)nc4-c4cccc(NS(=O)(=O)c5c(F)cccc5F)c4F)n3)C2)CS1(=O)=O` (stereo not drawn) [Example 153, N-(3-(2-(bicyclo[1.1.1]pentan-1-yl)-5-(2-((1-methyl-2,2-dioxido-2-thiaspiro[3.3]heptan-6-yl)amino)pyrimidin-4-yl)thiazol-4-yl)-2-fluorophenyl)-2,6-difluorobenzenesulfonamide], the IC50 was 0.06 µM. Under `O=S1(=O)CC2(CC(Nc3nccc(-c4sc(C56CC(C(F)(F)F)(C5)C6)nc4-c4cccc(NS(=O)(=O)c5c(Cl)cccc5C(F)(F)F)c4F)n3)C2)C1` [Example 91, 2-chloro-N-(3-(5-(2-((2,2-dioxido-2-thiaspiro[3.3]heptan-6-yl)amino)pyrimidin-4-yl)-2-(3-(trifluoromethyl)bicyclo-[1.1.1]pentan-1-yl)thiazol-4-yl)-2-fluorophenyl)-6-(trifluoromethyl)benzenesulfonamide] stands 0.15 µM; under `C[C@H]1CN(C)C[C@H](C)N1c1nc(-c2cccc(NS(=O)(=O)c3c(F)cccc3C(F)(F)F)c2F)c(-c2ccnc(N[C@H]3[C@@H]4CS(=O)(=O)C[C@@H]43)n2)s1` [Example 124, N-(3-(5-(2-(((1R,5S,6r)-3,3-dioxido-3-thiabicyclo[3.1.0]hexan-6-yl)amino)pyrimidin-4-yl)-2-((2S,6S)-2,4,6-trimethylpiperazin-1-yl)thiazol-4-yl)-2-fluorophenyl)-2-fluoro-6-(trifluoromethyl)benzenesulfonamide], 0.04 µM. On to `O=S1(=O)CC2CCC(C1)N2c1nc(-c2cccc(NS(=O)(=O)c3c(F)cccc3F)c2F)c(-c2ccnc(NC3CC4(C3)CS(=O)(=O)C4)n2)s1` [Example 48, N-(3-(5-(2-((2,2-dioxido-2-thiaspiro[3.3]heptan-6-yl)amino)-pyrimidin-4-yl)-2-(3,3-dioxido-3-thia-8-azabicyclo[3.2.1]octan-8-yl)thiazol-4-yl)-2-fluorophenyl)-2,6-difluorobenzenesulfonamide], for which the IC50 came out at 7.13 µM.

On to `O=S1(=O)CC2(CC(Nc3nccc(-c4sc(C5(C(F)F)CC5)nc4-c4cccc(NS(=O)(=O)c5c(F)cccc5C(F)(F)F)c4F)n3)C2)C1` [Example 80, N-(3-(2-(1-(difluoromethyl)cyclopropyl)-5-(2-((2,2-dioxido-2-thiaspiro[3.3]heptan-6-yl)amino)pyrimidin-4-yl)thiazol-4-yl)-2-fluorophenyl)-2-fluoro-6-(trifluoromethyl)benzenesulfonamide], for which the IC50 stood at 0.06 µM. Regarding `O=S1(=O)C[C@@H]2[C@H](C1)[C@H]2Nc1nccc(-c2sc(C3(C(F)F)CC3)nc2-c2cccc(NS(=O)(=O)c3c(F)cccc3OC(F)F)c2F)n1` [Example 129, 2-(difluoromethoxy)-N-(3-(2-(1-(difluoromethyl)cyclopropyl)-5-(2-(((1R,5S,6r)-3,3-dioxido-3-thiabicyclo[3.1.0]hexan-6-yl)amino)-pyrimidin-4-yl)thiazol-4-yl)-2-fluorophenyl)-6-fluorobenzene-sulfonamide], the IC50 turned out to be 0.09 µM. For `O=S1(=O)CC2(CC(Nc3nccc(-c4sc(N5C6CCC5COC6)nc4-c4cccc(NS(=O)(=O)c5c(F)cccc5F)c4F)n3)C2)C1` [Example 2, N-(3-(2-(3-oxa-8-azabicyclo[3.2.1]octan-8-yl)-5-(2-((2,2-dioxido-2-thiaspiro[3.3]heptan-6-yl)amino)pyrimidin-4-yl)thiazol-4-yl)-2-fluorophenyl)-2,6-difluorobenzenesulfonamide] the value was 0.15 µM; for `CC1(C)CCCN1c1nc(-c2cccc(NS(=O)(=O)c3c(F)cccc3F)c2F)c(-c2ccnc(NC3CC4(C3)CS(=O)(=O)C4)n2)s1` [Example 24, N-(3-(2-(2,2-dimethylpyrrolidin-1-yl)-5-(2-((2,2-dioxido-2-thiaspiro[3.3]heptan-6-yl)amino)pyrimidin-4-yl)thiazol-4-yl)-2-fluorophenyl)-2,6-difluorobenzenesulfonamide], 1.46 µM; for `O=S1(=O)C[C@@H]2[C@H](C1)[C@H]2Nc1nccc(-c2sc(N3C4CCC3CN(C3CC(F)(F)C3)C4)nc2-c2cccc(NS(=O)(=O)c3c(F)cccc3OC(F)F)c2F)n1` [Example 123, N-(3-(2-(3-(3,3-difluorocyclobutyl)-3,8-diazabicyclo[3.2.1]octan-8-yl)-5-(2-(((1R,5S,6r)-3,3-dioxido-3-thiabicyclo[3.1.0]hexan-6-yl)amino)pyrimidin-4-yl)thiazol-4-yl)-2-fluorophenyl)-2-(difluoromethoxy)-6-fluorobenzenesulfonamide], 0.17 µM.

Take `O=S1(=O)C[C@@H]2[C@H](C1)[C@@H]2Nc1nccc(-c2sc(C34CC(C3)C4)nc2-c2cccc(NS(=O)(=O)c3c(F)cccc3C(F)(F)F)c2F)n1` [Example 102, N-(3-(2-(bicyclo[1.1.1]pentan-1-yl)-5-(2-(((1R,5S,6s)-3,3-dioxido-3-thiabicyclo[3.1.0]hexan-6-yl)amino)pyrimidin-4-yl)thiazol-4-yl)-2-fluorophenyl)-2-fluoro-6-(trifluoromethyl)benzenesulfonamide]: the IC50 was 0.19 µM.

In the case of `O=S1(=O)CC2(CC(Nc3nccc(-c4sc(C56CC(C5)C6)nc4-c4cccc(NS(=O)(=O)c5c(Cl)cccc5Cl)c4F)n3)C2)C1` [Example 31, N-(3-(2-(bicyclo[1.1.1]pentan-1-yl)-5-(2-((2,2-dioxido-2-thiaspiro[3.3]heptan-6-yl)amino)pyrimidin-4-yl)thiazol-4-yl)-2-fluorophenyl)-2,6-dichlorobenzenesulfonamide], the IC50 turned out to be 0.07 µM. On to `O=S1(=O)C[C@@H]2[C@H](C1)[C@H]2Nc1nccc(-c2sc(C34CC5CC(CC(C5)C3)C4)nc2-c2cccc(NS(=O)(=O)c3c(F)cccc3F)c2F)n1` [Example 77, N-(3-(2-((3R,5R,7R)-adamantan-1-yl)-5-(2-(((1R,5S,6r)-3,3-dioxido-3-thiabicyclo[3.1.0]hexan-6-yl)amino)pyrimidin-4-yl)thiazol-4-yl)-2-fluorophenyl)-2,6-difluorobenzenesulfonamide], for which the IC50 came to 0.24 µM.

Consider `CC1C2(CC(Nc3nccc(-c4sc(C56CC(C5)C6)nc4-c4cccc(NS(=O)(=O)c5c(F)cccc5F)c4F)n3)C2)C(C)S1(=O)=O` (stereo not drawn) [Example 154, N-(3-(2-(bicyclo[1.1.1]pentan-1-yl)-5-(2-((1,3-dimethyl-2,2-dioxido-2-thiaspiro[3.3]heptan-6-yl)amino)pyrimidin-4-yl)thiazol-4-yl)-2-fluorophenyl)-2,6-difluorobenzenesulfonamide], for which the IC50 is 0.095 µM. For `O=S1(=O)CC2(CC(Nc3nccc(-c4sc(C56CC(F)(C5)C6)nc4-c4cccc(NS(=O)(=O)c5c(F)cccc5F)c4F)n3)C2)C1` [Example 7, N-(3-(5-(2-((2,2-dioxido-2-thiaspiro[3.3]heptan-6-yl)amino)pyrimidin-4-yl)-2-(3-fluorobicyclo[1.1.1]pentan-1-yl)thiazol-4-yl)-2-fluorophenyl)-2,6-difluorobenzenesulfonamide], the IC50 came to 0.39 µM. Regarding `O=S1(=O)CC2(CC(Nc3nccc(-c4sc(C5(C(F)(F)F)CCC5)nc4-c4cccc(NS(=O)(=O)c5c(F)cccc5C(F)(F)F)c4F)n3)C2)C1` [Example 84, N-(3-(5-(2-((2,2-dioxido-2-thiaspiro[3.3]heptan-6-yl)amino)-pyrimidin-4-yl)-2-(1-(trifluoromethyl)cyclobutyl)thiazol-4-yl)-2-fluorophenyl)-2-fluoro-6-(trifluoromethyl)benzenesulfonamide], the IC50 stood at 0.03 µM.

For `O=S1(=O)CC2(CC(Nc3nccc(-c4sc(C5(C(F)F)CC5)nc4-c4cccc(NS(=O)(=O)c5c(F)cccc5F)c4F)n3)C2)C1` [Example 16, N-(3-(2-(1-(difluoromethyl)cyclopropyl)-5-(2-((2,2-dioxido-2-thiaspiro[3.3]heptan-6-yl)amino)pyrimidin-4-yl)thiazol-4-yl)-2-fluorophenyl)-2,6-difluorobenzenesulfonamide], the IC50 came to 0.13 µM.

On to `O=S1(=O)C[C@@H]2[C@H](C1)[C@H]2Nc1nccc(-c2sc(N3C4CCC3CC(F)(F)C4)nc2-c2cccc(NS(=O)(=O)c3c(F)cccc3F)c2F)n1` [Example 115, N-(3-(2-(3,3-difluoro-8-azabicyclo[3.2.1]octan-8-yl)-5-(2-(((1R,5S,6r)-3,3-dioxido-3-thiabicyclo[3.1.0]hexan-6-yl)amino)pyrimidin-4-yl)thiazol-4-yl)-2-fluorophenyl)-2,6-difluorobenzenesulfonamide], for which the IC50 amounted to 0.05 µM.
